This passage reports pEC50 results from the supplement of paper PMC6411743.

Compound in the assay: Nc1ncnc2c1ncn2[C@@H]1O[C@H](COP(=O)(O)OP(=O)(O)OP(=O)(O)O)[C@@H](O)[C@H]1O [adenosine triphosphate]
The assay can be described thus: pEC50 of ATP-induced change in protein thermal stability (2D-TPP). Here is the method: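 2D thermal proteome profiling in mechanically disrupted Jurkat crude lysate. Lysate was treated 10 min at room temperature with Na-ATP (0, 0.005, 0.05, 0.5, 2 mM), heated to 12 temperatures (42-63.9 °C) for 3 min, and soluble protein was quantified by TMT10 LC-MS/MS. pEC50 is the median over replicates of dose-response fits at the lowest temperature showing a fold change of at least 1.5 (FDR-controlled hits).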

UniProt Q9Y285, sequence (Q9Y285 whole entry): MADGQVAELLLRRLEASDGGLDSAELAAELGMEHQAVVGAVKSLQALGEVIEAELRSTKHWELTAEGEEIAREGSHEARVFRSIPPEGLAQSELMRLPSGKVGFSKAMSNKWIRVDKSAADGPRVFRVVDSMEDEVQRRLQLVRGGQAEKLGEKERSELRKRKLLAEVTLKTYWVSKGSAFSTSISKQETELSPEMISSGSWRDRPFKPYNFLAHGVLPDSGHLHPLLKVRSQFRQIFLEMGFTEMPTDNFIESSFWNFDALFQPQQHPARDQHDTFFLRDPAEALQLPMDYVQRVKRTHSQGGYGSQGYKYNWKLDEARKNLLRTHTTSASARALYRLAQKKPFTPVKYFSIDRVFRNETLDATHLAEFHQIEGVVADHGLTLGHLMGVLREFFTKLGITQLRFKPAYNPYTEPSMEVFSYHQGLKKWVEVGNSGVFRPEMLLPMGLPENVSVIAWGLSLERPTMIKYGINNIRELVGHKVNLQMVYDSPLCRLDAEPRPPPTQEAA
UniProt P22570, sequence (P22570 whole entry): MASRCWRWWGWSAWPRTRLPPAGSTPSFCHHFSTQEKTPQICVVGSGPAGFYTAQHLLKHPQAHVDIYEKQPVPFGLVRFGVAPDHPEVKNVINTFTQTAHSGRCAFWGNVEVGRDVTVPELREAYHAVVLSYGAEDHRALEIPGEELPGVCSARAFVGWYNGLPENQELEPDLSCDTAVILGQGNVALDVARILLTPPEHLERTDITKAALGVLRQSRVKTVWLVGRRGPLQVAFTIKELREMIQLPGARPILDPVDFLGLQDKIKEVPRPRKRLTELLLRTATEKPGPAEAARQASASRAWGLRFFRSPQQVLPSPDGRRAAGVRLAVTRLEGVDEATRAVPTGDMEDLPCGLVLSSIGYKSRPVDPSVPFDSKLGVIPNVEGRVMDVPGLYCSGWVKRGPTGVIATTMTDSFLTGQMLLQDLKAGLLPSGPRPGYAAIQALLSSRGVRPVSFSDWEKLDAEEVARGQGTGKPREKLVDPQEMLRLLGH
UniProt Q9NWS6, sequence (Q9NWS6 whole entry): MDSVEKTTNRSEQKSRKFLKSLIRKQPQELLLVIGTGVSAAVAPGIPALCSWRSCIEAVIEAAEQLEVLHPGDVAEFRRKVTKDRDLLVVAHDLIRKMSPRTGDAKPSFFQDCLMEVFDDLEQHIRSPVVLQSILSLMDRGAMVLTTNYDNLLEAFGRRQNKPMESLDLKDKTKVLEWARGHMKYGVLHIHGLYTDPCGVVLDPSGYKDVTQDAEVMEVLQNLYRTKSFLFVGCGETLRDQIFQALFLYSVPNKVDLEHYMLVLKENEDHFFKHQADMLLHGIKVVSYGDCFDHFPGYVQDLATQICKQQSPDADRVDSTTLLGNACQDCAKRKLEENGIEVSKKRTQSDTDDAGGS
UniProt P11413, sequence (P11413 whole entry): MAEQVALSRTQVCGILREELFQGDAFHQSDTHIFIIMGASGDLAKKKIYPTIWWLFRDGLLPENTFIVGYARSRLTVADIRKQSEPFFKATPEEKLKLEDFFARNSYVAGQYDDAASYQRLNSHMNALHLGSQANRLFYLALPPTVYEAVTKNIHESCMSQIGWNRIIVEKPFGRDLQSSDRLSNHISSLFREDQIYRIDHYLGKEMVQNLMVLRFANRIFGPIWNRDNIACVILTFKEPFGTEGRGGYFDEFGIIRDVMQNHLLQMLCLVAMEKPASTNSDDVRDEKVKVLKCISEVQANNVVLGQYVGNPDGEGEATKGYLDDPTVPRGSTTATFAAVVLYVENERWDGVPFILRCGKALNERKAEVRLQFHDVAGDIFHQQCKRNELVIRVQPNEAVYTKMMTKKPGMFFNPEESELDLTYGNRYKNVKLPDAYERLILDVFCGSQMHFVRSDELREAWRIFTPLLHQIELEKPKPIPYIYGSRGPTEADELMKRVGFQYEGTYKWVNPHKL
UniProt Q9NUQ9, sequence (Q9NUQ9 whole entry): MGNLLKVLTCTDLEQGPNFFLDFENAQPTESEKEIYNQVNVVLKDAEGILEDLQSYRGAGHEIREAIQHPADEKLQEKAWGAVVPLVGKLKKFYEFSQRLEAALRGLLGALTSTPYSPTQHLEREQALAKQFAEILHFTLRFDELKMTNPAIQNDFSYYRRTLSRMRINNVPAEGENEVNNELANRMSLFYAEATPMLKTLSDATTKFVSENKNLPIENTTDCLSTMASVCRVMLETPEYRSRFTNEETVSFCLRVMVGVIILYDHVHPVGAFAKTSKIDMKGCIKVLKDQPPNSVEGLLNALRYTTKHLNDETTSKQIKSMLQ
UniProt Q8IY81, sequence (Q8IY81 whole entry): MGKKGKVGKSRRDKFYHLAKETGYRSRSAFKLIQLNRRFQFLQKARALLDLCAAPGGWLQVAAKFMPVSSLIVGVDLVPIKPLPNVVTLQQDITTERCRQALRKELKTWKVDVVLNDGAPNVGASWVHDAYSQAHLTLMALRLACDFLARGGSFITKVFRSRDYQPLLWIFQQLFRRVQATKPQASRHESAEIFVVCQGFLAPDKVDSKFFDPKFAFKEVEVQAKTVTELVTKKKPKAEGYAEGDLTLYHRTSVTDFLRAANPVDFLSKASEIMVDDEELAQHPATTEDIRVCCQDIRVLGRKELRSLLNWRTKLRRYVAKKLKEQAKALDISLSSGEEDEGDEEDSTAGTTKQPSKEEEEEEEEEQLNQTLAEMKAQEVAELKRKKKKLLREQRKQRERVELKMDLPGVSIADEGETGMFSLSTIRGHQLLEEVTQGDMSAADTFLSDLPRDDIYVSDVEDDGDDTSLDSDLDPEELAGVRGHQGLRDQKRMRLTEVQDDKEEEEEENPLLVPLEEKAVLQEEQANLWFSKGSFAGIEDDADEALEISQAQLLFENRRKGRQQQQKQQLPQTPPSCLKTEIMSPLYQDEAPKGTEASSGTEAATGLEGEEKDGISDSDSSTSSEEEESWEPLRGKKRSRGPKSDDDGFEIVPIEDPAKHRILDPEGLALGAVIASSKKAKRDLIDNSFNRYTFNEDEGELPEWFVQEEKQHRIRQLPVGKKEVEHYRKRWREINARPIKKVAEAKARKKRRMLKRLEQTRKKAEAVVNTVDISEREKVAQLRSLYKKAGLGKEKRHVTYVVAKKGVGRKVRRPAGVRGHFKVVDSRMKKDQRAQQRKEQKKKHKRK
UniProt P22102, sequence (P22102 whole entry): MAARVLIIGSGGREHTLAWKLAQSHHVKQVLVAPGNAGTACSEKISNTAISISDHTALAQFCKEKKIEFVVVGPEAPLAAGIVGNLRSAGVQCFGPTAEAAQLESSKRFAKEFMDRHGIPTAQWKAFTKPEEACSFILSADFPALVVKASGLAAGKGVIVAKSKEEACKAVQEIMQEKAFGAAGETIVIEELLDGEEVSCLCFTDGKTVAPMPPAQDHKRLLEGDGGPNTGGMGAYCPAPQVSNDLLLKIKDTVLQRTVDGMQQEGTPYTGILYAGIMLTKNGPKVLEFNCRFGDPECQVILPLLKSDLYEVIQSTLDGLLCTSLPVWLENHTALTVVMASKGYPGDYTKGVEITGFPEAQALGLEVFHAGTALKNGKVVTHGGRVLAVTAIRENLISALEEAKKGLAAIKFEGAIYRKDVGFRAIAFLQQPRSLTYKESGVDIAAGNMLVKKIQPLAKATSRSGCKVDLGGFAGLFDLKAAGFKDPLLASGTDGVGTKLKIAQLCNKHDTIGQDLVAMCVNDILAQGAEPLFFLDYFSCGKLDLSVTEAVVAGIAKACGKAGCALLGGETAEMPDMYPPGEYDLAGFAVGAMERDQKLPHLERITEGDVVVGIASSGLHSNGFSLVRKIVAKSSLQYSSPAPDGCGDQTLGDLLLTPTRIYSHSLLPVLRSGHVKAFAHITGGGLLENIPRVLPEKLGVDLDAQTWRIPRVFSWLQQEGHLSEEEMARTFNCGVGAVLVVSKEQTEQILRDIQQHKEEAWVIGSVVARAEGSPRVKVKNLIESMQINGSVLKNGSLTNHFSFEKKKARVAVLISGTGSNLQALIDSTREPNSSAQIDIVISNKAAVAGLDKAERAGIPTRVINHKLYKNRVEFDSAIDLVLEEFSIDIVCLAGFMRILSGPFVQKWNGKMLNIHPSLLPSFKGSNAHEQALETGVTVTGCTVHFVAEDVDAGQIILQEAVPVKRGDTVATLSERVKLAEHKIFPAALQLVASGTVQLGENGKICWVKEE
UniProt Q96A26, sequence (Q96A26 whole entry): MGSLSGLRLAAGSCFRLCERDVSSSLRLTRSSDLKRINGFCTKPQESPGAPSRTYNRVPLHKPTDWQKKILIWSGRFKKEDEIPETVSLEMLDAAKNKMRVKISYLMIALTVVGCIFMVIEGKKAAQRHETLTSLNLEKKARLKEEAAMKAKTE
UniProt P06733, sequence (P06733 whole entry): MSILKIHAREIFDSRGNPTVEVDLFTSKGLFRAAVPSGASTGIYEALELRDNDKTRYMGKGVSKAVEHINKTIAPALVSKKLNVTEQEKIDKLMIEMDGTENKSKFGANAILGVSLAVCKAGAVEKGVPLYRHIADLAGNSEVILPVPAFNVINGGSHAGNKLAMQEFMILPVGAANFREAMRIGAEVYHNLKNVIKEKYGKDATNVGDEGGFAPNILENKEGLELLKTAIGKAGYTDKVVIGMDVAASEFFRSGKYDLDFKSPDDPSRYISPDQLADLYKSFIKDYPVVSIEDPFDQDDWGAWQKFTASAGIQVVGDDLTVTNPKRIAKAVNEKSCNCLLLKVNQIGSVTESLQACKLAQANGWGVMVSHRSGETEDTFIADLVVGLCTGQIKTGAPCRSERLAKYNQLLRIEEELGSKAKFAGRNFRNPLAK
UniProt O95749, sequence (O95749 whole entry): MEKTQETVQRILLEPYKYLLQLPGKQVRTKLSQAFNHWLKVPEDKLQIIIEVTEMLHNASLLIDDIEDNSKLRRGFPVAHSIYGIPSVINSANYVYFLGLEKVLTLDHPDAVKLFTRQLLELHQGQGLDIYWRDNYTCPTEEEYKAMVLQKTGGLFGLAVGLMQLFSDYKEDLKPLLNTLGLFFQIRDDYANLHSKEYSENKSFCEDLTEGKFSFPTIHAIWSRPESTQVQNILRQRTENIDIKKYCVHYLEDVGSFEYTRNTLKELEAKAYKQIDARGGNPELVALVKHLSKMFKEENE

Broadly, the pEC50 is −log10 of the EC50, conventionally taken in molar units. In the case of “EML4 (effect direction: destabilized) (UniProt Q9HC35)”, the pEC50 is 2.93.

As to “ENO1 (effect direction: destabilized) (UniProt P06733)”, the negative logarithm of the EC50 (pEC50) is less than 2.7.

“ENO2 (effect direction: destabilized) (UniProt P09104)”: the pEC50 amounted to 2.99.

As to “ENO3 (effect direction: destabilized) (UniProt P13929)”, the pEC50 was less than 2.7.

“EPRS (effect direction: destabilized) (UniProt P07814)”: the negative-log EC50 (pEC50) stood at 4.04.

Take “EPS15L1 (effect direction: destabilized) (UniProt Q9UBC2)”: the pEC50 came out at 2.94.

As for “ETFA (effect direction: stabilized) (UniProt P13804)”, the negative-log EC50 (pEC50) was less than 2.7.

On to “EXOC2 (effect direction: stabilized) (UniProt Q96KP1)”, for which the pEC50 was 3.

“FAF1 (effect direction: stabilized) (UniProt Q9UNN5)”: the pEC50 is 2.79.

“FAHD2A (effect direction: destabilized) (UniProt Q96GK7)”: the pEC50 was less than 2.7.

Consider “FAM20B (effect direction: stabilized) (UniProt O75063)”, for which the pEC50 worked out at 3.12.

In the case of “FAM49B (effect direction: stabilized) (UniProt Q9NUQ9)”, the negative-log EC50 (pEC50) turned out to be 2.78.

As to “FAM118A (effect direction: stabilized) (UniProt Q9NWS6)”, the pEC50 turned out to be 3.19.

Take “FAM162A (effect direction: destabilized) (UniProt Q96A26)”: the negative logarithm of the EC50 (pEC50) was 3.13.

On to “FARSA (effect direction: stabilized) (UniProt Q9Y285)”, for which the pEC50 was determined as 3.47.

As for “FARSB (effect direction: stabilized) (UniProt Q9NSD9)”, the negative-log EC50 (pEC50) was found to be 3.16.

Regarding “FBL (effect direction: destabilized) (UniProt P22087)”, the pEC50 stood at 3.44.

On to “FDXR (effect direction: stabilized) (UniProt P22570)”, for which the negative-log EC50 (pEC50) came out at 3.26.

Turning to “FH (effect direction: stabilized) (UniProt P07954)”, the pEC50 amounted to 3.08.

As to “FIGNL1 (effect direction: stabilized) (UniProt Q6PIW4)”, the pEC50 stood at 3.82.

On to “FKBP4 (effect direction: stabilized) (UniProt Q02790)”, for which the pEC50 is less than 2.7.

On to “FKBP5 (effect direction: stabilized) (UniProt Q13451)”, for which the pEC50 is less than 2.7.

In the case of “FKBP8 (effect direction: stabilized) (UniProt Q14318)”, the negative logarithm of the EC50 (pEC50) amounted to 3.36.

As for “FN3KRP (effect direction: stabilized) (UniProt Q9HA64)”, the pEC50 was 4.17.

Consider “FNTA (effect direction: stabilized) (UniProt P49354)”, for which the pEC50 was 3.22.

For the target “FOXK1 (effect direction: stabilized) (UniProt P85037)”, the pEC50 is 3.36.

“FOXK2 (effect direction: stabilized) (UniProt Q01167)”: the negative-log EC50 (pEC50) was 3.76.

In the case of “FTSJ3 (effect direction: destabilized) (UniProt Q8IY81)”, the negative-log EC50 (pEC50) was determined as 3.22.

Turning to “FUCA1 (effect direction: destabilized) (UniProt P04066)”, the pEC50 was more than 5.3.

Regarding “G6PD (effect direction: stabilized) (UniProt P11413)”, the pEC50 is less than 2.7.

For “GAPDH (effect direction: stabilized) (UniProt P04406)”, the pEC50 was less than 2.7.

As to “GART (effect direction: stabilized) (UniProt P22102)”, the pEC50 was 4.88.

For the target “GGPS1 (effect direction: destabilized) (UniProt O95749)”, the pEC50 came out at 2.94.

As to “GLA (effect direction: stabilized) (UniProt P06280)”, the negative logarithm of the EC50 (pEC50) came out at 3.03.
